According to US20110171279A1, “POLYETHYLENIMINE BIOCIDES” (NDSU RESEARCH FOUNDATION, priority 2009, published 2011):
Values after ≈ are worked out from the molar mass of the structure shown. Where two headings read alike, the source gives them in different places.

Experiments:
Assay type in all cases: cell-based
[1] = test system: Halomonas pacifica; experiment: Growth reduction / MIC test against Halomonas pacifica; conditions: for MIC: Bisbaumannia pacifica; for Percent reduction in growth of Halomonas pacifica: Table 6
Protocol: (§1) The antimicrobial properties of the Formulations were determined by measuring the minimum inhibitory concentration (MIC) or by using an adaptation of the MIC test. […] Additional details of the MIC method can be found at Andrews, J. M., Journal of Antimicrobial Chemotherapy (2001) 48, 5-16, incorporated herein by reference in its entirety.
(§2) In accordance with the MIC test, working solutions for each Formulation were prepared by dissolving 100 mg of each Formulation in 10 mL of methanol (Sigma-Aldrich) to generate a 10 mg/mL solution. Next, 10 ml of Guillard's F/2 medium was spiked with 200 μL of the 10 mg/mL Formulation solution to achieve a final concentration of 0.2 mg/mL.
0.2 mL of each H. pacifica concentration was added in triplicate to a 96-well plate. Additionally, 0.2 mL of Guillard's F/2 medium without any H. pacifica or Formulation and 0.2 mL of Guillard's F/2 medium with H. pacifica, but no Formulations, served as negative and positive growth controls, respectively. The 96-well plates were placed in an illuminated growth cabinet with a 16:8 light:dark cycle (photon flux density 33 μmol m^−2 s^−1) for 48 hrs at 18° C. and measured for chlorophyll fluorescence using a multi-well plate spectrophotometer (excitation: 360 nm; emission: 670 nm). The efficacy of each Formulation was measured by determining the percent reduction in diatom growth as a function of Formulation concentration.
(§3) The antimicrobial activity of Formulations 10-12, also derived from ETCS and PEI, was determined toward a suite of marine microorganisms, namely, Pseudoalteromonas atlantica, Cellulophaga lytica, Cobetia marina, and Halomonas pacifica. The antimicrobial activity of Formulations 10-12 was determined toward these marine microorganisms according to the methods of EXAMPLES 5-7. The MIC for each Formulation against each strain is compared to that of the PEI, ETCS, and TCS (alone) in Table 7.

[2] = test system: Cobetia marina; experiment: MIC test against Cobetia marina
Protocol: as §1, §3

[3] = test system: Pseudoalteromonas atlantica; experiment: MIC test against Pseudoalteromonas atlantica
Protocol: as §1, §3

[4] = test system: Navicula incerta; experiment: Growth reduction / MIC test against Navicula incerta in Guillard's F/2 medium, chlorophyll fluorescence; conditions: for Percent reduction in growth of Navicula incerta: Table 4
Protocol: as §1, §2
(§4) 0.2 mL of each concentration of each Formulation (spiked with N. incerta) was added in triplicate to a 96-well plate. Additionally, 0.2 mL of Guillard's F/2 medium without any N. incerta or Formulation and 0.2 mL of Guillard's F/2 medium with N. incerta, but no Formulations, served as negative and positive growth controls, respectively. The 96-well plates were placed in an illuminated growth cabinet with a 16:8 light:dark cycle (photon flux density 33 μmol m^−2 s^−1) for 48 hrs at 18° C. and measured for chlorophyll fluorescence using a multi-well plate spectrophotometer (excitation: 360 nm; emission: 670 nm). The efficacy of each Formulation was measured by determining the percent reduction in diatom growth as a function of Formulation concentration.

[5] = test system: Cellulophaga lytica; experiment: Growth reduction / MIC test against Cellulophaga lytica; conditions: for MIC: Cellulophaga lytica; for Percent reduction in growth of Cellulophaga lytica: Table 5
Protocol: as §1, §2
as §4, with “C. lytica)” for “N. incerta)”, “C. lytica” for “N. incerta”, “C. lytica,” for “N. incerta,”
as §3

[6] = test system: Escherichia coli; experiment: Growth reduction / MIC test against Escherichia coli in Luria-Bertani broth, absorbance 600 nm; conditions: for MIC: Escherichia coli, read-out: E. Coli MIC; for Percent reduction in growth of Escherichia coli: Table 3
Protocol: as §1
as §2, with “Luria-Bertani broth” for “Guillard's F/2 medium”, “the” for “the 10”
0.2 mL of each concentration of each Formulation (spiked with E. coli) was added in triplicate to a 96-well plate. Additionally, 0.2 mL of Luria-Bertani broth without any E. coli or Formulation and 0.2 mL of Luria-Bertani broth with E. coli, but no Formulations, served as negative and positive growth controls, respectively. Plates were then placed in an incubator, at 37° C. for 24 hrs (with shaking), and then measured for growth by taking absorbance measurements at 600 nm with a multi-well plate spectrophotometer (Synergy HT). The efficacy of each Formulation was measured by determining the percent reduction in bacterial growth as a function of Formulation concentration.
Next, the antimicrobial activity of Formulations 69-77 and Reference 1 toward E. coli was measured by determining the percent reduction in bacterial growth as a function of concentration. The results for the examples were compared to various PEIs used to produce the examples.

[7] = Formulation Concentration 0.78125 μg/mL
[8] = Formulation Concentration 1.5625 μg/mL
[9] = Formulation Concentration 3.125 μg/mL
[10] = Formulation Concentration 6.25 μg/mL
[11] = Formulation Concentration 12.5 μg/mL
[12] = Formulation Concentration 25 μg/mL
[13] = Formulation Concentration 50 μg/mL
[14] = Formulation Concentration 100 μg/mL

SMILES | Percent reduction in growth of Halomonas pacifica [1, 7] [%] | Percent reduction in growth of Halomonas pacifica [1, 8] [%] | Percent reduction in growth of Halomonas pacifica [1, 9] [%] | Percent reduction in growth of Halomonas pacifica [1, 10] [%] | Percent reduction in growth of Halomonas pacifica [1, 11] [%] | Percent reduction in growth of Halomonas pacifica [1, 12] [%] | Percent reduction in growth of Halomonas pacifica [1, 13] [%] | Percent reduction in growth of Halomonas pacifica [1, 14] [%] | Percent reduction in growth of Navicula incerta [4, 7] [%] | Percent reduction in growth of Navicula incerta [4, 8] [%] | Percent reduction in growth of Navicula incerta [4, 9] [%] | Percent reduction in growth of Navicula incerta [4, 10] [%] | Percent reduction in growth of Navicula incerta [4, 11] [%] | Percent reduction in growth of Navicula incerta [4, 12] [%] | Percent reduction in growth of Navicula incerta [4, 13] [%] | Percent reduction in growth of Navicula incerta [4, 14] [%] | Percent reduction in growth of Cellulophaga lytica [5, 7] [%] | Percent reduction in growth of Cellulophaga lytica [5, 8] [%] | Percent reduction in growth of Cellulophaga lytica [5, 9] [%] | Percent reduction in growth of Cellulophaga lytica [5, 10] [%] | other results
Clc1ccc(Oc2ccc(Cl)cc2OCC2CO2)c(Cl)c1 (stereo not shown) [ETCS, 2-((5-chloro-2-(2,4-dichlorophenoxy)phenoxy)methyl)oxirane] | 0.00 | 11.15 | 11.78 | 12.90 | 16.72 | 16.08 | 7.01 | 0.00 | 0.00 | 0.00 | 0.00 | 0.00 | 34.14 | 89.92 | 91.40 | 93.37 | 0.00 | 5.92 | 10.06 | 11.24 | MIC ([1]; Table 7, read-out: H. pacifica MIC): > 100 µg/mL; H. pacifica MIC ([1]; Table 12): >100 µg/mL; MIC ([2]; Table 7, read-out: C. marina MIC): > 100 µg/mL; MIC ([3]; Table 7, read-out: P. atlantica MIC): > 100 µg/mL; MIC ([5]; Table 7, read-out: C. lytica MIC): > 100 µg/mL; Percent reduction in growth of Cellulophaga lytica [5, 11]: 33.73%; Percent reduction in growth of Cellulophaga lytica [5, 12]: 57.40%; Percent reduction in growth of Cellulophaga lytica [5, 13]: 69.23%; Percent reduction in growth of Cellulophaga lytica [5, 14]: 14.20%; C. lytica MIC ([5]; Table 12): >100 µg/mL; MIC ([6]; Table 12): > 100 µg/mL; Percent reduction in growth of Escherichia coli [6, 7]: 0.00%; Percent reduction in growth of Escherichia coli [6, 8]: 0.00%; Percent reduction in growth of Escherichia coli [6, 9]: 0.00%; Percent reduction in growth of Escherichia coli [6, 10]: 0.00%; Percent reduction in growth of Escherichia coli [6, 11]: 0.00%; Percent reduction in growth of Escherichia coli [6, 12]: 0.00%; Percent reduction in growth of Escherichia coli [6, 13]: 0.00%; Percent reduction in growth of Escherichia coli [6, 14]: 0.26%
Oc1cc(Cl)ccc1Oc1ccc(Cl)cc1Cl [TCS, triclosan] | 0.00 | 0.00 | 0.00 | 9.94 | 17.32 | 37.65 | 93.07 | 92.77 | 14.26 | 22.00 | 84.51 | 91.29 | 94.57 | 93.55 | 94.21 | 94.95 | 12.29 | 32.40 | 59.78 | 86.87 | MIC ([1]; read-out: H. pacifica MIC, Table 7): 50 to 100 µg/mL (≈ 173 to 345 µM); MIC ([1]; read-out: H. pacifica MIC, Table 12): 100 µg/mL (≈ 345 µM); MIC ([2]; read-out: C. marina MIC): > 100 µg/mL; MIC ([3]; read-out: P. atlantica MIC): 50 µg/mL (≈ 173 µM); MIC ([4]; read-out: N. incerta MIC): 3.12 µg/mL (≈ 10.8 µM); MIC ([5]; read-out: C. lytica MIC, Table 7): 6.25 to 12.5 µg/mL (≈ 21.6 to 43.2 µM); MIC ([5]; read-out: C. lytica MIC, Table 12): 12.5 µg/mL (≈ 43.2 µM); Percent reduction in growth of Cellulophaga lytica [5, 11]: 86.87%; Percent reduction in growth of Cellulophaga lytica [5, 12]: 87.15%; Percent reduction in growth of Cellulophaga lytica [5, 13]: 87.15%; Percent reduction in growth of Cellulophaga lytica [5, 14]: 86.59%; MIC [6]: 0.781 µg/mL; Percent reduction in growth of Escherichia coli [6, 7]: 14.66%; Percent reduction in growth of Escherichia coli [6, 8]: 52.34%; Percent reduction in growth of Escherichia coli [6, 9]: 93.43%; Percent reduction in growth of Escherichia coli [6, 10]: 93.93%; Percent reduction in growth of Escherichia coli [6, 11]: 93.43%; Percent reduction in growth of Escherichia coli [6, 12]: 93.93%; Percent reduction in growth of Escherichia coli [6, 13]: 93.93%; Percent reduction in growth of Escherichia coli [6, 14]: 93.93%
